Results on 30 compounds are retold here after ChEMBL document CHEMBL3137381, “MMV Box Onchocerca lienalis screening set”.

Holding throughout (assay type): functional
The subject of experiment [1] is Onchocerca lienalis. The experiment can be described thus: MMV: Percent motility assay at a compound concentration of 3.1e-6 M. Activity score legend: 3: Active, 2: Moderately active; 1: Inactive, 0: Toxic. The note with it: at 3.1 µM.
The subject of experiment [2] is Onchocerca lienalis. The experiment can be described thus: MMV: Percent motility assay at a compound concentration of 1.25e-5 M. Activity score legend: 3: Active, 2: Moderately active; 1: Inactive, 0: Toxic. As to conditions: at 12.5 µM.
For experiment [3], the system named is Onchocerca lienalis. Nature of the experiment: MMV: Percent motility assay at a compound concentration of 7.8e-7 M. Activity score legend: 3: Active, 2: Moderately active; 1: Inactive, 0: Toxic. As to conditions: at 0.78 µM.
For experiment [4], the system named is Onchocerca lienalis. The experiment can be described thus: MMV: Percent motility assay at a compound concentration of 1.9e-7 M. Activity score legend: 3: Active, 2: Moderately active; 1: Inactive, 0: Toxic. The note with it: at 0.19 µM.

For `COc1ccc(C2c3ccc4ccccc4c3Oc3ncn(CCCN(C)C)c(=N)c32)cc1` (stereo not given), the Motility in the experiment with Onchocerca lienalis [1], in the experiment with Onchocerca lienalis [2], with Onchocerca lienalis [3] and in the experiment with Onchocerca lienalis [4] was 100% each time.

As to `Nc1nc(Nc2cccc(F)c2)nc2ccccc12`, the Motility in the experiment with Onchocerca lienalis [1], in the experiment on Onchocerca lienalis [2], with Onchocerca lienalis [3] and in the experiment with Onchocerca lienalis [4] was 100% each time.

Turning to `COc1ccc(/C=C2/SC(=Nc3ccccc3)NC2=O)cc1`, the Motility in the experiment with Onchocerca lienalis [1], with Onchocerca lienalis [2], in the experiment on Onchocerca lienalis [3] and in the experiment on Onchocerca lienalis [4] was 100% throughout.

Take `O=C(NC1CCN(Cc2ccccc2)CC1)c1cc2nc(-c3ccc(Cl)s3)cc(C(F)(F)F)n2n1`: the Motility in the experiment on Onchocerca lienalis [1], in the experiment on Onchocerca lienalis [2], in the experiment on Onchocerca lienalis [3] and in the experiment on Onchocerca lienalis [4] was 100% each time.

With `Cc1sc(NC(=O)c2ccccc2)c(C(c2cccs2)N2CCN(c3ccccc3)CC2)c1C` (stereo not given), the Motility in the experiment with Onchocerca lienalis [1], with Onchocerca lienalis [2], in the experiment with Onchocerca lienalis [3] and in the experiment with Onchocerca lienalis [4] was 100% in each case.

Consider `CCOC(=O)c1c(C)n(-c2ccccc2)c2ccc(OC(=O)c3cc(OC)c(OC)c(OC)c3)cc12`, for which the Motility with Onchocerca lienalis [1], in the experiment on Onchocerca lienalis [2], in the experiment with Onchocerca lienalis [3] and in the experiment with Onchocerca lienalis [4] was 100% throughout.

`N#Cc1nc(Cc2cccc3ccccc23)oc1N1CCN(C(c2ccccc2)c2ccccc2)CC1`: the Motility in the experiment on Onchocerca lienalis [1], in the experiment with Onchocerca lienalis [2], in the experiment on Onchocerca lienalis [3] and in the experiment on Onchocerca lienalis [4] was 100% in each case.

With `CN(N=O)C1=C(NC2CCCCC2)C(=O)c2ccccc2C1=O`, the Motility with Onchocerca lienalis [1], in the experiment with Onchocerca lienalis [2], with Onchocerca lienalis [3] and with Onchocerca lienalis [4] was 100% throughout.

Take `COc1cccc(Nc2nc(N)c3ccccc3n2)c1.Cl`: the Motility with Onchocerca lienalis [1], with Onchocerca lienalis [2], in the experiment with Onchocerca lienalis [3] and in the experiment on Onchocerca lienalis [4] was 100% each time.

For the compound `Cc1ccc(C(=O)c2oc3ccc4c(C)cc(=O)oc4c3c2C)cc1`, the Motility in the experiment on Onchocerca lienalis [1], in the experiment on Onchocerca lienalis [2], in the experiment on Onchocerca lienalis [3] and with Onchocerca lienalis [4] was 100% each time.

`CCCCCCc1cc2cc(-c3csc(C=Cc4ccccc4)n3)c(=O)oc2cc1O`: the Motility in the experiment with Onchocerca lienalis [1], in the experiment with Onchocerca lienalis [2], in the experiment with Onchocerca lienalis [3] and in the experiment with Onchocerca lienalis [4] was 100% each time.

With `CC(Oc1ccc(NC(=O)c2cccs2)cc1)C(=O)c1ccc(Cl)cc1` (stereo not given), the Motility in the experiment with Onchocerca lienalis [1], with Onchocerca lienalis [2], with Onchocerca lienalis [3] and in the experiment with Onchocerca lienalis [4] was 100% throughout.

Take `COc1ccc(CNC(=O)c2cc3c(=O)n4ccccc4nc3n(CCc3ccccc3)c2=N)cc1`: the Motility in the experiment with Onchocerca lienalis [1], in the experiment on Onchocerca lienalis [2], with Onchocerca lienalis [3] and in the experiment with Onchocerca lienalis [4] was 100% throughout.

For `O=C(NC1CCN(Cc2ccccc2)CC1)c1cc(C(=O)NC2CCN(Cc3ccccc3)CC2)cc(C(=O)NC2CCN(Cc3ccccc3)CC2)c1`, the Motility with Onchocerca lienalis [1], with Onchocerca lienalis [2], in the experiment on Onchocerca lienalis [3] and in the experiment with Onchocerca lienalis [4] was 100% each time.

With `COc1ccc(-c2cn3c(C(=O)Nc4ccccc4Cl)c(-c4ccccc4)c4c3n2CCCC4)cc1`, the Motility in the experiment with Onchocerca lienalis [1] is 100%; in the experiment with Onchocerca lienalis [2], 66.66%; in the experiment on Onchocerca lienalis [3], 100%; in the experiment on Onchocerca lienalis [4], 100%.

In the case of `Cl.Cn1c(=O)n(C)c2cc(CNCCNc3ccnc4cc(Cl)ccc34)ccc21`, the Motility with Onchocerca lienalis [1], in the experiment with Onchocerca lienalis [2], with Onchocerca lienalis [3] and in the experiment with Onchocerca lienalis [4] was 100% in each case.

Take `CCOc1ccc2nc(C)cc(Nc3ccc(N(C)C)cc3)c2c1.Cl`: the Motility with Onchocerca lienalis [1], with Onchocerca lienalis [2], in the experiment on Onchocerca lienalis [3] and in the experiment on Onchocerca lienalis [4] was 100% throughout.

On to `COc1ccc(C=C2SC(Nc3ccc(F)cc3)=NC2=O)c(OC)c1`, for which the Motility in the experiment on Onchocerca lienalis [1], with Onchocerca lienalis [2], with Onchocerca lienalis [3] and in the experiment with Onchocerca lienalis [4] was 100% each time.

In the case of `O=C(Nc1ccc(-c2nc3cc(NC(=O)c4ccc(Cl)cc4)ccc3[nH]2)cc1)c1ccc(Cl)cc1`, the Motility with Onchocerca lienalis [1], in the experiment on Onchocerca lienalis [2], in the experiment with Onchocerca lienalis [3] and in the experiment with Onchocerca lienalis [4] was 100% in each case.

On to `CCOC(=O)c1cnc2ccc(OC)cc2c1Nc1ccc(N2CCN(C)CC2)cc1`, for which the Motility in the experiment on Onchocerca lienalis [1], in the experiment on Onchocerca lienalis [2], in the experiment on Onchocerca lienalis [3] and in the experiment on Onchocerca lienalis [4] was 100% in each case.

On to `COc1ccccc1C(=O)ON=C(N)Cc1cccc2ccccc12`, for which the Motility in the experiment on Onchocerca lienalis [1], in the experiment on Onchocerca lienalis [2], with Onchocerca lienalis [3] and in the experiment on Onchocerca lienalis [4] was 100% in each case.

Turning to `CCOc1cc2c(cc1OCC)C(c1cc(Cl)ccc1O)NCC2` (stereo not given), the Motility in the experiment on Onchocerca lienalis [1], with Onchocerca lienalis [2], in the experiment on Onchocerca lienalis [3] and with Onchocerca lienalis [4] was 100% each time.

`c1ccc(CNc2nc(Nc3ccccc3)nc3ccccc23)cc1`: the Motility in the experiment with Onchocerca lienalis [1] was found to be 100%; in the experiment with Onchocerca lienalis [2] it was 0%; in the experiment on Onchocerca lienalis [3], 100%; with Onchocerca lienalis [4], 100%.

In the case of `CCOc1ccc2nc(C)cc(Nc3ccc(Br)cc3)c2c1`, the Motility in the experiment with Onchocerca lienalis [1], in the experiment on Onchocerca lienalis [2], in the experiment with Onchocerca lienalis [3] and in the experiment on Onchocerca lienalis [4] was 100% each time.

For the compound `COc1cc2c3cc1Oc1c(OC)c(OC)cc4c1C(Cc1ccc(O)c(c1)Oc1ccc(cc1)CC3N(C)CC2)N(C)CC4.Cl` (stereo not given), the Motility in the experiment on Onchocerca lienalis [1], with Onchocerca lienalis [2], in the experiment on Onchocerca lienalis [3] and in the experiment with Onchocerca lienalis [4] was 100% in each case.

Take `COc1ccc2sc(N(Cc3cccnc3)C(=O)c3ccc(C#N)cc3)nc2c1`: the Motility in the experiment with Onchocerca lienalis [1], with Onchocerca lienalis [2], with Onchocerca lienalis [3] and with Onchocerca lienalis [4] was 100% each time.

For `CC1CC2=C(CC1CNCCCN(C)C)C(C)(C)CCC2` (stereo not given), the Motility with Onchocerca lienalis [1], in the experiment on Onchocerca lienalis [2], in the experiment on Onchocerca lienalis [3] and in the experiment on Onchocerca lienalis [4] was 100% in each case.

On to `CCOC(=O)c1cnc2ccc(OC)cc2c1NCc1ccccc1`, for which the Motility in the experiment with Onchocerca lienalis [1], in the experiment with Onchocerca lienalis [2], in the experiment with Onchocerca lienalis [3] and in the experiment with Onchocerca lienalis [4] was 100% in each case.

As for `CCOC(=O)C1=CN(C)C=C(C(=O)OCC)C1c1cc(Br)c(OCC)c(OC)c1`, the Motility in the experiment on Onchocerca lienalis [1], in the experiment on Onchocerca lienalis [2], in the experiment on Onchocerca lienalis [3] and in the experiment with Onchocerca lienalis [4] was 100% each time.

As for `CCCCc1c(CCC)c(=N)c2ccccc2n1C.I`, the Motility in the experiment on Onchocerca lienalis [1], with Onchocerca lienalis [2], in the experiment on Onchocerca lienalis [3] and in the experiment on Onchocerca lienalis [4] was 100% throughout.
